Measurements taken from PubChem BioAssay (NCI).
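All cell lines were grown in 96-well plates and treated with compound for 48 hours. TGI: concentration producing complete growth inhibition.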 Where a SMILES comes first, the peptide text is derived from it. [ ]: non-standard residue; d: D form. The star is where a group is joined. Cbz = O=C(OCc1ccccc1)*; Aib = CC(C)(N)C(=O)O

How the values were obtained:
Experiment in all cases: DTP human tumour cell line panel, 48 h
A549 NSCLC = system: A549 NSCLC
MALME-3M melanoma = system: MALME-3M melanoma
MDA-N = system: MDA-N
NCI-H460 lung = system: NCI-H460 lung
NCI/ADR-RES ovarian = system: NCI/ADR-RES ovarian
OVCAR-5 ovarian = system: OVCAR-5 ovarian
OVCAR-8 ovarian = system: OVCAR-8 ovarian
SK-MEL-28 melanoma = system: SK-MEL-28 melanoma
SR leukemia = system: SR leukemia
UACC-257 melanoma = system: UACC-257 melanoma

Row | Compound | TGI (A549 NSCLC) | TGI (MALME-3M melanoma) | TGI (MDA-N) | TGI (NCI-H460 lung) | TGI (NCI/ADR-RES ovarian) | TGI (OVCAR-5 ovarian) | TGI (OVCAR-8 ovarian) | TGI (SK-MEL-28 melanoma) | TGI (SR leukemia) | TGI (UACC-257 melanoma)
1 | Cn1c(-c2c(C3=CC(=O)N(c4ccccc4)C3=O)c3ccccc3n2C)cc2ccccc21 | > 100 µM | > 100 µM | > 100 µM | > 100 µM | > 100 µM | > 100 µM | > 100 µM | > 100 µM | > 100 µM | > 100 µM
2 | CC1=NN2CCC(=O)N=C2S1 | > 100 µM | > 100 µM | > 100 µM | > 100 µM | > 100 µM | > 100 µM | > 100 µM | > 100 µM | > 100 µM | > 100 µM
3 | CC(C)=CCC[C@@H](C)C1=C(O)C(Nc2ccccc2)=C(C)C(=O)C1=O | 45.5 µM | > 75 µM | > 100 µM | > 64.5 µM | 45.6 µM | > 100 µM | > 100 µM | > 100 µM | > 100 µM | > 100 µM
4 | Cc1cc(OCc2nnc3n2N=C(c2cc(F)c(Cl)cc2Cl)/C(=C/c2ccc(-c4ccc(Cl)cc4)o2)S3)ccc1Cl | > 50 µM | > 50 µM | > 50 µM | > 50 µM | > 50 µM | > 50 µM | > 50 µM | > 50 µM | > 50 µM | > 50 µM
5 | O=c1onc(Nc2ccccc2)n1-c1ccccc1 | > 100 µM | > 100 µM | > 100 µM | > 100 µM | > 100 µM | > 100 µM | > 100 µM | > 100 µM | > 100 µM | > 100 µM
6 | CCN(CC)C(=O)c1cc([N+](=O)[O-])c(=O)n2c1[nH]c1ccccc12 | > 100 µM | > 100 µM | > 100 µM | > 100 µM | > 100 µM | > 100 µM | > 100 µM | > 100 µM | > 100 µM | > 100 µM
7 | O=C(O)C1CSC2(CCCN(Cc3ccccc3)C2)N1 (stereo not given) | > 100 µM | > 100 µM | > 100 µM | > 100 µM | > 100 µM | > 100 µM | > 100 µM | > 100 µM | 34.4 µM | > 100 µM
8 | O=c1[nH]c2ccc(C(F)(F)F)cc2nc1C(F)(F)F | > 100 µM | 74.2 µM | > 100 µM | > 100 µM | 70.7 µM | > 100 µM | 77 µM | > 100 µM | > 100 µM | 64.4 µM
9 | CSc1c(C)n([O-])c2cc(Cl)c(Cl)cc2[n+]1=O | > 100 µM | 33 µM | 33.9 µM | > 100 µM | 39.3 µM | 29.8 µM | 32.3 µM | 39 µM | 5.69 µM | 34.8 µM
10 | O=C1c2cc3ncsc3cc2C(=O)c2c(O)ccc(O)c21 | > 100 µM | > 100 µM | > 100 µM | > 100 µM | > 100 µM | > 100 µM | > 100 µM | > 100 µM | > 100 µM | > 100 µM
11 | CC(C)(NC(=O)C(C)(C)NC(=O)OCc1ccccc1)C(=O)O (Cbz-[Aib]-[Aib]-OH) | > 100 µM | > 100 µM | > 100 µM | > 100 µM | > 100 µM | > 100 µM | > 100 µM | > 100 µM | > 100 µM | > 100 µM
12 | Cc1ccc(S(=O)(=O)NC(=O)NC(CC(=O)O)C(=O)O)cc1 (stereo not given) | > 100 µM | > 100 µM | > 100 µM | > 100 µM | > 100 µM | > 100 µM | > 100 µM | > 100 µM | > 100 µM | > 100 µM
13 | CC(C)(C)OC(=O)NNCC(O)COc1ccccc1 (stereo not given) | > 100 µM | > 100 µM | > 100 µM | > 100 µM | > 100 µM | > 100 µM | > 100 µM | > 100 µM | > 100 µM | > 100 µM
14 | CCCCOc1ccc(S(=O)(=O)/N=C(\NO)Nc2ccc(Cl)cc2)cc1 | 30.5 µM | 32.7 µM | 31.6 µM | 32.7 µM | 33.1 µM | 33.6 µM | 36.2 µM | 36.1 µM | 67.3 µM | 30.4 µM
15 | CC(=O)c1c(O)cc(O)c(-c2c(C)cc(O)c3c2C(=O)c2cccc(O)c2C3=O)c1O | 34.2 µM | 30.6 µM | 30.8 µM | 31.7 µM | 42.2 µM | 41.5 µM | 49.5 µM | 73.5 µM | 53.8 µM | 40 µM
16 | COc1ccc(/C=C2\OC(=O)C(Cl)=C2c2ccc(OC)c(Cl)c2)cc1 | > 100 µM | 62.3 µM | 47.1 µM | 59 µM | 52.6 µM | 90.5 µM | 60.8 µM | > 100 µM | > 100 µM | > 100 µM
17 | CCOC(=O)CCC(NC(=O)c1ccc(Nc2nc3ccccc3nc2C(=O)OCC)s1)C(=O)OCC (stereo not given) | > 100 µM | > 100 µM | > 100 µM | > 100 µM | > 100 µM | > 100 µM | > 100 µM | > 100 µM | > 100 µM | > 100 µM
18 | CC1=NN(c2nc(N)nc(-c3cc4ccccc4oc3=N)n2)C(C)(C)C1 | 41.3 µM | 32.2 µM | 31.2 µM | 34.2 µM | 43.9 µM | 60.1 µM | 53 µM | 30.5 µM | 46.8 µM | 31.4 µM
19 | O=C(O)c1cccc(S(=O)(=O)NN2C(=O)CSC2c2c(O)ccc3ccccc23)c1 (stereo not given) | > 100 µM | 90.6 µM | > 100 µM | > 100 µM | 76.9 µM | > 100 µM | 15.7 µM | 79.2 µM | 59.6 µM | > 100 µM
